Values of other authors as cited in paper PMC11728000, “Antitumor Activity and Multi-Target Mechanism of Phenolic Schiff Bases Bearing Methanesulfonamide Fragments: Cell Cycle Analysis and a Molecular Modeling Study” (International Journal of Molecular Sciences, 2024).

Columns and labels:
SW-620 = tested on: SW-620; set-up: method as in https://dtp.cancer.gov/dtpstandard/dwindex/index.jsp; settings: ref https://dtp.cancer.gov/dtpstandard/dwindex/index.jsp; cited from earlier work
ACHN = tested on: ACHN; set-up: method as in https://dtp.cancer.gov/dtpstandard/dwindex/index.jsp; settings: ref https://dtp.cancer.gov/dtpstandard/dwindex/index.jsp; cited from earlier work
DU-145 = tested on: DU-145; set-up: method as in https://dtp.cancer.gov/dtpstandard/dwindex/index.jsp; settings: ref https://dtp.cancer.gov/dtpstandard/dwindex/index.jsp; cited from earlier work
A498 = tested on: A498; set-up: method as in https://dtp.cancer.gov/dtpstandard/dwindex/index.jsp; settings: ref https://dtp.cancer.gov/dtpstandard/dwindex/index.jsp; cited from earlier work
[1] = tested on: CNS Cancer subpanel tumor cell lines; settings: cited from earlier work; for GI50: read-out: GI50, subpanel average, ref https://dtp.cancer.gov/dtpstandard/dwindex/index.jsp; for TGI, subpanel average: ref https://dtp.cancer.gov/dtpstandard/dwindex/index.jsp
[2] = tested on: Melanoma subpanel tumor cell lines; settings: cited from earlier work; for GI50: read-out: GI50, subpanel average, ref https://dtp.cancer.gov/dtpstandard/dwindex/index.jsp; for TGI, subpanel average: ref https://dtp.cancer.gov/dtpstandard/dwindex/index.jsp
SN12C = tested on: SN12C; set-up: method as in https://dtp.cancer.gov/dtpstandard/dwindex/index.jsp; settings: ref https://dtp.cancer.gov/dtpstandard/dwindex/index.jsp; cited from earlier work
COLO 205 = tested on: COLO 205; set-up: method as in https://dtp.cancer.gov/dtpstandard/dwindex/index.jsp; settings: ref https://dtp.cancer.gov/dtpstandard/dwindex/index.jsp; cited from earlier work
OVCAR-5 = tested on: OVCAR-5; set-up: method as in https://dtp.cancer.gov/dtpstandard/dwindex/index.jsp; settings: ref https://dtp.cancer.gov/dtpstandard/dwindex/index.jsp; cited from earlier work
BT-549 = tested on: BT-549; set-up: method as in https://dtp.cancer.gov/dtpstandard/dwindex/index.jsp; settings: ref https://dtp.cancer.gov/dtpstandard/dwindex/index.jsp; cited from earlier work
NCI/ADR-RES = tested on: NCI/ADR-RES; set-up: method as in https://dtp.cancer.gov/dtpstandard/dwindex/index.jsp; settings: ref https://dtp.cancer.gov/dtpstandard/dwindex/index.jsp; cited from earlier work
OVCAR-4 = tested on: OVCAR-4; set-up: method as in https://dtp.cancer.gov/dtpstandard/dwindex/index.jsp; settings: ref https://dtp.cancer.gov/dtpstandard/dwindex/index.jsp; cited from earlier work
PC-3 = tested on: PC-3; set-up: method as in https://dtp.cancer.gov/dtpstandard/dwindex/index.jsp; settings: ref https://dtp.cancer.gov/dtpstandard/dwindex/index.jsp; cited from earlier work
[3] = tested on: Colon Cancer subpanel tumor cell lines; settings: cited from earlier work; for GI50: read-out: GI50, subpanel average, ref https://dtp.cancer.gov/dtpstandard/dwindex/index.jsp; for TGI, subpanel average: ref https://dtp.cancer.gov/dtpstandard/dwindex/index.jsp
M14 = tested on: M14; set-up: method as in https://dtp.cancer.gov/dtpstandard/dwindex/index.jsp; settings: ref https://dtp.cancer.gov/dtpstandard/dwindex/index.jsp; cited from earlier work
HOP-62 = tested on: HOP-62; set-up: method as in https://dtp.cancer.gov/dtpstandard/dwindex/index.jsp; settings: ref https://dtp.cancer.gov/dtpstandard/dwindex/index.jsp; cited from earlier work
OVCAR-8 = tested on: OVCAR-8; set-up: method as in https://dtp.cancer.gov/dtpstandard/dwindex/index.jsp; settings: ref https://dtp.cancer.gov/dtpstandard/dwindex/index.jsp; cited from earlier work
NCI-H460 = tested on: NCI-H460; set-up: method as in https://dtp.cancer.gov/dtpstandard/dwindex/index.jsp; settings: ref https://dtp.cancer.gov/dtpstandard/dwindex/index.jsp; cited from earlier work
UACC-257 = tested on: UACC-257; set-up: method as in https://dtp.cancer.gov/dtpstandard/dwindex/index.jsp; settings: ref https://dtp.cancer.gov/dtpstandard/dwindex/index.jsp; cited from earlier work
KM12 = tested on: KM12; set-up: method as in https://dtp.cancer.gov/dtpstandard/dwindex/index.jsp; settings: ref https://dtp.cancer.gov/dtpstandard/dwindex/index.jsp; cited from earlier work
[4] = tested on: Breast Cancer subpanel tumor cell lines; settings: cited from earlier work; for GI50: read-out: GI50, subpanel average, ref https://dtp.cancer.gov/dtpstandard/dwindex/index.jsp; for TGI, subpanel average: ref https://dtp.cancer.gov/dtpstandard/dwindex/index.jsp
SK-MEL-2 = tested on: SK-MEL-2; set-up: method as in https://dtp.cancer.gov/dtpstandard/dwindex/index.jsp; settings: ref https://dtp.cancer.gov/dtpstandard/dwindex/index.jsp; cited from earlier work
HCT-15 = tested on: HCT-15; set-up: method as in https://dtp.cancer.gov/dtpstandard/dwindex/index.jsp; settings: ref https://dtp.cancer.gov/dtpstandard/dwindex/index.jsp; cited from earlier work
UACC-62 = tested on: UACC-62; set-up: method as in https://dtp.cancer.gov/dtpstandard/dwindex/index.jsp; settings: ref https://dtp.cancer.gov/dtpstandard/dwindex/index.jsp; cited from earlier work
SK-MEL-28 = tested on: SK-MEL-28; set-up: method as in https://dtp.cancer.gov/dtpstandard/dwindex/index.jsp; settings: ref https://dtp.cancer.gov/dtpstandard/dwindex/index.jsp; cited from earlier work
[5] = tested on: Prostate Cancer subpanel tumor cell lines; settings: cited from earlier work; for GI50: read-out: GI50, subpanel average, ref https://dtp.cancer.gov/dtpstandard/dwindex/index.jsp; for TGI, subpanel average: ref https://dtp.cancer.gov/dtpstandard/dwindex/index.jsp
[6] = read-out: LC50, subpanel average, ref https://dtp.cancer.gov/dtpstandard/dwindex/index.jsp

SMILES	GI50 (ACHN) [µM]	GI50 (DU-145) [µM]	GI50 [1] [µM]	TGI, subpanel average [1] [µM]	GI50 [2] [µM]	TGI, subpanel average [2] [µM]	GI50 (SN12C) [µM]	GI50 (COLO 205) [µM]	GI50 (OVCAR-5) [µM]	GI50 (BT-549) [µM]	GI50 (NCI/ADR-RES) [µM]	GI50 [3] [µM]	TGI, subpanel average [3]	GI50 (M14) [µM]	GI50 (HOP-62) [µM]	GI50 (NCI-H460) [µM]	GI50 (UACC-257) [µM]	GI50 (KM12) [µM]	GI50 [4] [µM]	TGI, subpanel average [4] [µM]	further results
C#Cc1cccc(Nc2ncnc3cc(OCCOC)c(OCCOC)cc23)c1 [Erlotinib, erlotinib]	0.199	1.99	17	82.11	23.7	77.89	1.58	50.1	7.94	31.6	7.94	51.7	c (compounds showed values ≥ 100 μM)	6.31	15.8	6.31	100	79.4	24.7	70.53	GI50 (SW-620): 79.4 µM; GI50 (A498): 2.51 µM; CC50 [1, 6]: > 100 µM; CC50 [2, 6]: 93.3 µM; GI50 (OVCAR-4): 10 µM; GI50 (PC-3): 39.8 µM; CC50 [3, 6]: > 100 µM; GI50 (OVCAR-8): 7.94 µM; CC50 [4, 6]: 96.4 µM; GI50 (SK-MEL-2): 6.31 µM; GI50 (HCT-15): 3.98 µM; GI50 (UACC-62): 3.16 µM; GI50 (SK-MEL-28): 50.1 µM; GI50 [5]: 20.9 µM; CC50 [5, 6]: > 100 µM; TGI, subpanel average [5]: c (compounds showed values ≥ 100 μM)
COc1cc2ncnc(Nc3ccc(F)c(Cl)c3)c2cc1OCCCN1CCOCC1 [Gefitinib, gefitinib]	0.158	1.58	5.64	19.62	3.68	12.49	1.26	7.94	3.98	3.16	1.26	5.23	18.47 µM	2	3.16	3.16	2.51	10	4.67	18.62	GI50 (SK-MEL-2): 10 µM; GI50 (HCT-15): 3.98 µM; GI50 (UACC-62): 2 µM; GI50 (SK-MEL-28): 3.16 µM; GI50 [5]: 3.29 µM; TGI, subpanel average [5]: 31.62 µM
